# In paper PMC4967898, “Peptides interfering with protein-protein interactions in the ethylene signaling pathway delay tomato fruit ripening” (Scientific Reports, 2016):
# “Also recorded” adds a separate entry of the source.
# Columns and labels:
# [1] = test system: green, immature tomato fruits; test: Tomato fruit ripening after inhibitor treatment; assay type: in vivo, tomato (Solanum pimpinellifolium)
# Description: To further investigate the potential of NOP-1 for agricultural applications, we tested the effect of the NOP-1 peptide on tomato fruit ripening in comparison to other known inhibitors of ethylene responses. To this end we tested […] (MCP) and aminoethoxyvinylglycine (AVG). MCP is a known inhibitor of ethylene signaling blocking ethylene binding at the receptor proteins, whereas AVG blocks ethylene production in the plant by competitive inhibition of ACC synthases. To monitor inhibition of the fruit ripening process, we treated green, immature tomato fruits with 200 μM NOP-1, MCP or AVG, respectively and documented the fruit ripening process for 20 days. Figure 3 compares the effect of the different inhibitor treatments on tomato fruits to controls lacking the inhibitory treatment that contain either buffer alone or a random sequence control peptide (ROP-1). […] The bioassays underline the high inhibitory potential of NOP-1 on the ripening process compared to the well-known and efficient inhibitors of ethylene responses.
# Inhibitor-treatment of tomato fruits
# (§1) Aminoethoxyvinyl glycine (AVG) was purchased from Sigma-Aldrich, St Louis, MO (purity ~95%). SmartFresh^SM (AgroFresh, Spring House, PA) was used as sugar-based powder formulation of 1-MCP. Concentration of 1-MCP was calculated according to the percentage of active ingredient (0.14%) and release from the SmartFresh^SM powder. For comparison concentration of all inhibitors are expressed in terms of molarity. For treatment of tomato fruits with NOP-1, AVG and MCP, inhibitors were dissolved in the FRET buffer described in the previous section to a final concentration of 200 μM. Green tomato fruits (Solanum pimpinellifolium) from the same estimated developmental stage were harvested from the panicle and water-cleaned. 300 μL of the inhibitor solution was applied onto the tomato surface with a brush and the fruits were air-dried for 30 min. As an alternative application, tomato fruits were plunged into 2 mL of the inhibitor solution and incubated for 30 min in this solution or 200 μL of the peptide-containing solution were carefully injected into the tomato tissue by a hypodermic syringe. Three individual tomato fruits were treated for the different applications of the peptide in order to document the ripening process. After inhibitor-treatment tomato fruits were transferred to a vial closed with aluminum foil and stored in the dark at room temperature. Maturation process was documented every second day for at least 20 days. For measurement of ethylene production, green tomato fruits were treated as described above.
# [2] = test system: climacteric tomato fruits; test: Real-time monitoring of ethylene production of tomato fruits (laser-based ethylene detector); assay type: in vivo, tomato (Solanum pimpinellifolium)
# Description: as §1
# Real-time monitoring of ethylene production
# Ethylene production was continuously monitored over 19 days with a laser-based ethylene detector (ETD-300; Sensor Sense BV; Nijmegen, Netherlands). A detailed description of the system has been given elsewhere. Briefly, the detector consists of a laser emitting radiation in the 10 micrometers infrared wavelength region and a photoacoustic cell, in which ethylene is detected due to its strong fingerprint-like absorption pattern in this region. Inside the photoacoustic cell ethylene can absorb the laser radiation and converts it into kinetic energy by energy exchange processes, resulting in local heating of the sample. By switching on and off the light, rapid heating/cooling can occur, giving rise to a periodical pressure change, i.e. sound wave. The amplitude of these waves is directly proportional to the concentration of ethylene in the photoacoustic cell and can be detected very accurately with sensitive miniature microphones.
# Six tomato fruits for each treatment, including an untreated group (buffer control, CT) were placed into glass cuvettes (150 ml volume) and connected to a gas flow through system (VC-6, Sensor Sense BV; Nijmegen, Netherlands) under a continuous flow routine as described in Ref. [58]. The […] ensured that the samples were continuously flushed with air at a constant flow of 2 l/h and allowed automated sampling of ethylene from the headspace of six cuvettes. Each cuvette was alternatively connected to the ETD-300 and ethylene emitted in the headspace was measured for 12 min. […] The ethylene production was related to the emission rate by multiplying the measured value with the flow rate (expressed in nanoliters per hour, nl/h) and further normalized with the fresh weight (expressed in grams, gFW); the end result being nanoliters per hour per gram of fresh weight, nl/h∙gFW.
# NOP-1 stability by LC/MS = assay type: physicochemical; settings: NOP-1 500 µg in 100 µl PBS pH 6.7, 0, 5, 10 and 15 days, room temperature; Supelcosil C18, 215 nm; identity by mass spectrometry
# Description: Figure S4: Analysis of NOP-1 stability by liquid chromatography (LC).
# Lyophilized NOP-1 (500 µg) was dissolved in 100 µl PBS pH 6.7, incubated for 0 days, 5 days, 10 days and 15 days at room temperatures and then applied to a Supelcosil C18 column (4.6x150 mm). The column was washed with 15 ml H2O with 0.1% TFA (buffer A).
# Elution was performed with a linear gradient to 100% buffer B (100% acetonitrile with 0.1% TFA) over 30 min at a flow rate of 1 ml min-1. Detection was set to 215 nm. Identity of the peptide was confirmed by mass spectrometry. […]
# Arabidopsis EIN2-ETR1 = settings: proteins from Arabidopsis, cited from earlier work
# Description: Studies on the related tomato proteins in this work emphasize that NOP-1 follows the same inhibitory mechanism also in other plants.
# living plants = settings: cited from earlier work
compound,measurement,setting,value
"CC(C)C[C@H](NC(=O)[C@H](CCCNC(=N)N)NC(=O)[C@H](CCCNC(=N)N)NC(=O)[C@H](CCCCN)NC(=O)[C@H](Cc1ccc(O)cc1)NC(=O)[C@H](CCCNC(=N)N)NC(=O)[C@H](CCCCN)NC(=O)[C@@H](N)CC(C)C)C(N)=O [NOP-1, LKRYKRRL-NH2]",delay in fruit ripening (Fig. 3c),"[1]; 200 μM, surface-treated, incubated or injected, versus untreated fruits",at least 5 days
same,delay in maturation of tomato fruits,"[1]; 200 μM, all tested inhibitors and all applications of NOP-1 (injection, incubation, surface application), documented for 20 days, three fruits per application",10 to 15 days
same,delay in maturation by application form (in words),"[1]; 200 μM, surface application compared with incubation and injection",Delay in maturation process is most evident for fruit surface application
same,effect on tomato fruit ripening (in words),"[1]; compared with buffer or untreated control, inhibitors at 200 μM",delays ripening similar to known inhibitors of ethylene perception (MCP) and ethylene biosynthesis (AVG)
same,penetration of fruit surface / uptake (in words),"[1]; inferred from ripening delay after surface application, 200 μM",can easily penetrate the surface tissue of the tomatoes and is taken up by the fruits; also recorded: seems to penetrate the exocarp and is taken up by the fruits
same,delay in ripening by injection (in words),"[1]; injection into the fruits, initial experiments",less pronounced delay in ripening
same,delay in fruit ripening (Fig. 3a),"[1]; surface-treated, 200 μM, versus untreated control fruits",at least 15 days
same,"time of ethylene production peak, injected or incubated fruits","[2]; 200 μM NOP-1, injected or incubated",6 to 8 days
same,initial ethylene burst in injected fruits,"[2]; 200 μM NOP-1, injected, attributed to wounding",ethylene burst detected in the injected fruits; also recorded: initial burst in ethylene production within the first hours
same,"time of ethylene production peak, surface-treated fruits","[2]; 200 μM NOP-1, surface-treated, same time as control fruits",~12 days
same,ethylene production compared with controls (in words),"[2]; 200 μM NOP-1, surface treatment, injection, incubation, versus untreated fruits and buffer control, six fruits per treatment, 21 °C, dark",do not significantly differ from controls; also recorded: No reduction in ethylene production is evident; also recorded: modest increase rather than an inhibition of ethylene production
same,"Ethylene production over 18 days (total ethylene release, average of applications)","[2]; fruits treated with 200 μM NOP-1, average of surface-application, incubation and injection, injected fruits corrected for initial ethylene burst, six fruits per treatment, 21 °C, dark",616 +/- 46 nl/gFW
same,stability of the peptide,NOP-1 stability by LC/MS,stable for several days at room temperature under normal conditions
same,effect on EIN2-ETR1 interaction in Arabidopsis,Arabidopsis EIN2-ETR1,reduced or abolished EIN2-ETR1 interaction; also recorded: able to disrupt interaction of EIN2 and ETR1
same,IC50,Arabidopsis EIN2-ETR1; read-out: IC50 for inhibition of EIN2-ETR1 interaction in Arabidopsis,93 µM
same,inhibition of ethylene responses in living plants,living plants,potent inhibitor of ethylene responses in living plants
